# Reference: ChEMBL document CHEMBL2311454, “Discovery and evaluation of novel inhibitors of mycobacterium protein tyrosine phosphatase B from the 6-Hydroxy-benzofuran-5-carboxylic acid scaffold” (J Med Chem, 2013)
# Experiments:
# [1] = target: Receptor-type tyrosine-protein phosphatase F (Homo sapiens, UniProt P10586); assay: Inhibition of LAR (unknown origin) expressed in Escherichia coli using pNPP substrate after 5 mins by spectrophotometric analysis
# [2] = target: T1, Tyrosine-protein phosphatase non-receptor type 2 (Homo sapiens, UniProt P17706); assay: Inhibition of TCPTP (unknown origin) expressed in Escherichia coli using pNPP substrate after 5 mins by spectrophotometric analysis
# T1 sequence (P17706 whole entry): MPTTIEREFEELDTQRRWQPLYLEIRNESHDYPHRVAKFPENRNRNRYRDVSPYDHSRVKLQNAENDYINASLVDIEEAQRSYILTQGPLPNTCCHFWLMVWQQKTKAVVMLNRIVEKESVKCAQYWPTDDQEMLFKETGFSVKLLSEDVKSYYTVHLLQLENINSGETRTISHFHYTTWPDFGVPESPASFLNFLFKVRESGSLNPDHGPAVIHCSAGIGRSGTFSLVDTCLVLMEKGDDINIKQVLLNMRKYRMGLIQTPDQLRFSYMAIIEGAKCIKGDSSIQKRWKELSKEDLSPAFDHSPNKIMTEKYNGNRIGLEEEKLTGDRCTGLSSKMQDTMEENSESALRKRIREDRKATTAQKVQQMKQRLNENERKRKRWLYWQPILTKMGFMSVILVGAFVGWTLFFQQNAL
# Laforin = target: T2, Laforin (Homo sapiens, UniProt O95278); assay: Inhibition of Laforin (unknown origin) expressed in Escherichia coli using pNPP substrate after 5 mins by spectrophotometric analysis
# T2 sequence (O95278 whole entry): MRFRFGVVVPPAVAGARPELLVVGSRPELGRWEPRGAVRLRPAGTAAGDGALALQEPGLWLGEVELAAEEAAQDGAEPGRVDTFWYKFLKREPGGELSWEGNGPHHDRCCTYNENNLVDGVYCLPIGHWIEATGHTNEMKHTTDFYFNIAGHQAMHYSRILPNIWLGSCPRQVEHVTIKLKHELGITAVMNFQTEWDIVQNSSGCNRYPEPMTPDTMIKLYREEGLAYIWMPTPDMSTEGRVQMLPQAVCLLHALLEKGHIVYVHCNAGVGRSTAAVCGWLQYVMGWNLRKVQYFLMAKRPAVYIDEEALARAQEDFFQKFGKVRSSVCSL
# [3] = target: Receptor-type tyrosine-protein phosphatase alpha (Homo sapiens, UniProt P18433); assay: Inhibition of PTPalpha (unknown origin) expressed in Escherichia coli using pNPP substrate after 5 mins by spectrophotometric analysis
# Sequence of Receptor-type tyrosine-protein phosphatase alpha (P18433 whole entry): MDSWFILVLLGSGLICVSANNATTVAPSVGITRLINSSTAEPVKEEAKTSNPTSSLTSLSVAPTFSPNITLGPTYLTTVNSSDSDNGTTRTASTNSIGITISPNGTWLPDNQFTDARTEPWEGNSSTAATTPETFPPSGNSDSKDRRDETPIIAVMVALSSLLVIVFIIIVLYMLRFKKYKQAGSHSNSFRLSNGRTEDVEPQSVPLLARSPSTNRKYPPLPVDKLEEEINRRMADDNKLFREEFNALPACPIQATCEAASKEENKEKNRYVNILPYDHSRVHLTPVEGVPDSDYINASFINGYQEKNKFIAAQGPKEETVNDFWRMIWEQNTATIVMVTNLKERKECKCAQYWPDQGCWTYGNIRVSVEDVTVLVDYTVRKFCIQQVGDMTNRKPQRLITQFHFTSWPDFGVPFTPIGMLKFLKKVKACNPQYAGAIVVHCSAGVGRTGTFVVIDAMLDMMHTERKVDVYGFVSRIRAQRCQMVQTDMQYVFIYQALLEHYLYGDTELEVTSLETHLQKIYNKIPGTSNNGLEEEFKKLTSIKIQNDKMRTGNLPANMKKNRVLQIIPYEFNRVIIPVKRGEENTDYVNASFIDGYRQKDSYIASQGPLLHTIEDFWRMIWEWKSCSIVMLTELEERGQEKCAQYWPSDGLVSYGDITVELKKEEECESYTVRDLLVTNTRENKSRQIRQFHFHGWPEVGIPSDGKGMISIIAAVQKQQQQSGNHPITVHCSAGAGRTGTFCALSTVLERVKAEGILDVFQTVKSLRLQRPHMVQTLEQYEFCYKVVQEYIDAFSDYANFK
# Sequence of Receptor-type tyrosine-protein phosphatase F (P10586 whole entry): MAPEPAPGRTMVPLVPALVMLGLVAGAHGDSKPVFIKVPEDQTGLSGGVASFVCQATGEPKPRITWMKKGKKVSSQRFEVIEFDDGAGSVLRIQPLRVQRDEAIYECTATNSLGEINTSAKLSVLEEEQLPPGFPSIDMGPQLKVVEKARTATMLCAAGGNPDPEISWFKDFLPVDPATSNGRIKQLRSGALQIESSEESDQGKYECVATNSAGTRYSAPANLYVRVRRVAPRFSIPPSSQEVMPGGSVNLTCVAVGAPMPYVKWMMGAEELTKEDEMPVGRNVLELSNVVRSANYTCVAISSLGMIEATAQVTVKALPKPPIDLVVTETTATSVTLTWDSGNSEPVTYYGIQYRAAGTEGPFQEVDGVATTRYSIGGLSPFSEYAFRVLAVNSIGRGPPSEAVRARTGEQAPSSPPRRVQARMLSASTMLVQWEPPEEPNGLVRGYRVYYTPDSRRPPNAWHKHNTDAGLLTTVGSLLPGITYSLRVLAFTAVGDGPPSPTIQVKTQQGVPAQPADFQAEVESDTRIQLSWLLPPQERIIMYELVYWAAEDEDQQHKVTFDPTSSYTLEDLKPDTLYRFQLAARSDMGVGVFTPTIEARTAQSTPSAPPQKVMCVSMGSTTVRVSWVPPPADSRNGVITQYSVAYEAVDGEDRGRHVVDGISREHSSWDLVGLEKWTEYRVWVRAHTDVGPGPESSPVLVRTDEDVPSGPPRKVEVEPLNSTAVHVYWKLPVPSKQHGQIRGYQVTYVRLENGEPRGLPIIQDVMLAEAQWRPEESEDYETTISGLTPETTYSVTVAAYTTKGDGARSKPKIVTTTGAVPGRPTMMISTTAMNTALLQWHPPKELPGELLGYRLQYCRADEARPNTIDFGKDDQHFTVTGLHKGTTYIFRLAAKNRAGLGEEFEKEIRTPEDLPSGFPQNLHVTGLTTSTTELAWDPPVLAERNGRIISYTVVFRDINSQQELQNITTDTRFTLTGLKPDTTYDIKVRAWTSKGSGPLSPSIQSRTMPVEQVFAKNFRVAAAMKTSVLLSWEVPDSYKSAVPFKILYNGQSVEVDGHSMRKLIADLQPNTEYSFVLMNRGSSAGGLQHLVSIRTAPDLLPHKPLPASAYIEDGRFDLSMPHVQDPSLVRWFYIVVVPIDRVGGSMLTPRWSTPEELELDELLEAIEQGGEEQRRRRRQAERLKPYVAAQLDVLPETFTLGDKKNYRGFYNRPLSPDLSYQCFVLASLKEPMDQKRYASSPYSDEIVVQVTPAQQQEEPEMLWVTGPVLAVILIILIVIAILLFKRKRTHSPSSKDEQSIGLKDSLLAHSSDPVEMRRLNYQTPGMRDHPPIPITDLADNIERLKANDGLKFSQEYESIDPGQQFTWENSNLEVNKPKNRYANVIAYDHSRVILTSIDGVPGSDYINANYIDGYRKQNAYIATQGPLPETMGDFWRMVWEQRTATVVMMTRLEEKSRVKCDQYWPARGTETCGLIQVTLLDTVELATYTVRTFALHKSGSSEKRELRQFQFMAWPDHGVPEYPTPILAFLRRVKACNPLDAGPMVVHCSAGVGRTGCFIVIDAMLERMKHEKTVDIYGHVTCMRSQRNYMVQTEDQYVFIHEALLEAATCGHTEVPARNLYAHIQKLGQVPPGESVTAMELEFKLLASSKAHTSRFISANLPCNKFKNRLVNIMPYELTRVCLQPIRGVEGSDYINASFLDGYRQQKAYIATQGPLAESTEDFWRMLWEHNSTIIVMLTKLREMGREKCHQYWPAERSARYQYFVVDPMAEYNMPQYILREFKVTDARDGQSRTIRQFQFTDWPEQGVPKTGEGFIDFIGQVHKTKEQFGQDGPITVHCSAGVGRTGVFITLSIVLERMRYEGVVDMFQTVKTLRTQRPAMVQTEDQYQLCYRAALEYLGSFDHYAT
structure (smiles),measurement,setting,value
O=C(O)c1cc2c(C#Cc3cc(F)cc(F)c3)c(-c3ccccc3)oc2cc1O,IC50,[1],> 10 µM
same,IC50,[2],6.1 µM
same,IC50,Laforin,> 30 µM
same,IC50,[3],> 10 µM
